Reference: ChEMBL document CHEMBL1122529, “Synthesis of 5-aryl-2H-tetrazoles, 5-aryl-2H-tetrazole-2-acetic acids, and [(4-phenyl-5-aryl-4H-1,2,4-triazol-3-yl)thio]acetic acids as possible superoxide scavengers and antiinflammatory agents” (1984)

What was measured:
Type in all cases: functional
[1] = organism: Rattus norvegicus; experiment: In Vitro superoxide scavenging activity at a concentration of 1.0 x 10E4 M.
[2] = organism: Rattus norvegicus; experiment: In Vitro superoxide scavenging activity by the analysis of variance method at concentration of 0.1 x 10E4 M
[3] = organism: Rattus norvegicus; experiment: In Vitro superoxide scavenging activity by the analysis of variance method at concentration of 0.5 x 10E4 M
[4] = test system: Rattus norvegicus; experiment: Percentage inhibition of reverse passive Arthus reaction was reported at a concentration of 30 mg/kg.
[5] = test system: Rattus norvegicus; experiment: Percentage inhibition of Carrageenan-induced rat paw edema at a concentration of 32 mg/kg
[6] = test system: Rattus norvegicus; experiment: The mean index of reverse passive Arthus reaction was calculated 3 h-postinjection at a concentration of 30 mg/kg.
[7] = organism: Rattus norvegicus; experiment: In Vitro superoxide scavenging activity by the analysis of variance method at concentration of 2.0 x 10E4 M
[8] = test system: Rattus norvegicus; experiment: Percentage inhibition of Carrageenan-induced rat paw edema at a concentration of 0.3 mg/kg

COc1ccc(-c2nn[nH]n2)cc1
inhibition [1]: 0%

Oc1ccc(-c2nn[nH]n2)cc1O
inhibition [2]: 6.9%
inhibition [3]: 23%
inhibition [1]: 37.5%

c1ccc(-c2nnn[nH]2)cc1
inhibition [1]: 0%

O=C(O)CSc1nnc(-c2cc(O)c(O)c(O)c2)n1-c1ccccc1
inhibition [2]: 16.7%
inhibition in vivo at 30 mg/kg [4]: -28.2%
inhibition in vivo at 32 mg/kg [5]: 18%
Mean index [6]: 52
inhibition [3]: 22.1%
inhibition [1]: 65.7%

COc1ccc(-c2nnn(CC(=O)O)n2)cc1
inhibition [1]: 0%

COc1cc(-c2nn[nH]n2)cc(OC)c1OC
inhibition [1]: 0%

COc1ccc(-c2nnn(CC(=O)O)n2)cc1OC
inhibition [1]: 0%

COc1ccc(-c2nnc(SCC(=O)O)n2-c2ccccc2)cc1
inhibition [1]: 0%

O=C(O)CSc1nnc(-c2ccc(O)cc2)n1-c1ccccc1
inhibition [1]: 11.6%

Oc1ccc(-c2nn[nH]n2)cc1
inhibition [7]: 0%

COc1cc(-c2nnc(SCC(=O)O)n2-c2ccccc2)cc(OC)c1OC
inhibition [1]: 0%

O=C(O)Cn1nnc(-c2cc(O)c(O)c(O)c2)n1
inhibition [2]: 15.3%
inhibition in vivo at 30 mg/kg [4]: -28.7%
inhibition in vivo at 32 mg/kg [5]: 14%
Mean index [6]: 52
inhibition [3]: 55.9%
inhibition [1]: 78%

O=C(O)CSc1nnc(-c2ccccc2)n1-c1ccccc1
inhibition [1]: 0%

O=C(O)Cn1nnc(-c2ccccc2)n1
inhibition [1]: 0%

COc1cc(-c2nnn(CC(=O)O)n2)cc(OC)c1OC
inhibition [1]: 0%

O=C(O)Cn1nnc(-c2ccc(O)c(O)c2)n1
inhibition [2]: 0%
inhibition [3]: 7.9%
inhibition [1]: 18.8%

COc1ccc(-c2nnc(SCC(=O)O)n2-c2ccccc2)cc1OC
inhibition [1]: 0%

O=C(O)Cn1nnc(-c2ccc(O)cc2)n1
inhibition [1]: 0%

CCCCC1C(=O)N(c2ccccc2)N(c2ccccc2)C1=O [PHENYLBUTAZONE]
inhibition in vivo at 32 mg/kg [5]: 47%

O=C(O)CSc1nnc(-c2ccc(O)c(O)c2)n1-c1ccccc1
inhibition [2]: 8.3%
inhibition [3]: 11.8%
inhibition [1]: 21.5%

C[C@@H]1C[C@H]2[C@@H]3CCC4=CC(=O)C=C[C@]4(C)[C@@]3(F)[C@@H](O)C[C@]2(C)[C@@]1(O)C(=O)CO [DEXAMETHASONE]
inhibition in vivo at 0.3 mg/kg [8]: 69%

COc1ccc(-c2nn[nH]n2)cc1OC
inhibition [1]: 0%

Oc1cc(-c2nn[nH]n2)cc(O)c1O
inhibition [2]: 16%
inhibition in vivo at 30 mg/kg [4]: -5%
inhibition in vivo at 32 mg/kg [5]: 6%
Mean index [6]: 42.6
inhibition [3]: 48.4%
inhibition [1]: 66.9%
